Results: patent US20150305333A1, “USE OF GLUCOSAMINE AMIDES AS PLANT GROWTH AND YIELD ENHANCERS” (PIONEER HI-BRED INTERNATIONAL, INC., priority 2012, published 2015)

Columns and labels:
Type in all cases: in vivo
[1] = tested on: Spring barley (Hordeum vulgare); assay: Spring barley field trial 2010: emergence, height, yield; settings: for Barley Yield: entire plot harvested
Method: A field trial was conducted to evaluate the effects of NPG on plant emergence, height, and yield in Spring barley (Hordeum vulgare) planted near Thorndale, Ontario, Canada, in 2010. Seed treatments included an Untreated Control, three concentrations of NPG, and three concentrations of a natural LCO. The natural LCO was provided by Dr. Don Smith (McGill University, Montreal, Canada) and prepared as described in Example 2. Aqueous solutions of NPG and LCO were applied at 10^−6 M, 10^−7 M and 10^−8M to barley seed using a spray nozzle and left to soak on a plastic sheet for 20 minutes. The seeds were beginning to emerge when they were planted on June 8th in a loam composed of 41% sand, 39% silt and 20% clay and 4.5% organic matter.
Barley was planted at a rate of 100 kg seed/ha to a depth of 2.5 cm. Weeds were controlled using 770 mL/ha 8.79 wt % fenoxprop-P-ethyl, and a mixture of 33.33 wt % thifensulfuron methyl and 16.67 wt % tribenuron methyl at a rate of 30 g/ha. Disease was controlled with 23.6 wt % pyraclostrobin at a rate of 0.4 L/ha. All of the products are industry standards and representative of what is used in commercial production.
The trial was conducted using a randomized complete block design with a plot size of 2 m by 8 m with a 17.8 cm row spacing, 3.3 cm plant spacing and four replications
Yield was determined by harvesting the entire plot and transforming the data to kg/ha (Table 10). Yields are not corrected for differences in emergence rates. […] It is noteworthy, however, that yield benefits may be difficult to accurately determine with the small plots used in this study.

[2] = tested on: spring wheat (Triticum aestivum); assay: Spring wheat field trial 2011: emergence, vigor, tillering, biomass, yield; settings: for Spring Wheat Crop Vigor (1-5 scale): vigor scale of Example 3; for Spring Wheat Biomass: 82 DAP, aerial portion
Method: A field trial was conducted to evaluate the effects of NPG on plant emergence, vigor, tillering, biomass and yield in spring wheat (Triticum aestivum) planted near Breslau, Ontario, Canada, in 2011. Seed treatments included an Untreated Control, 10^−7 M NPG applied as a seed treatment, 10^−7 M NPG followed by two foliar NPG applications, 10^−6 M natural LCO, and 10^−6 M commercial LCO plus a commercial rhizobia inoculant (LCO+RI). The natural LCO was provided by Dr. Don Smith (McGill University, Montreal, Canada) and prepared as described in Example 2. Seed coating was performed by injecting 7 mL of aqueous NPG solution per 100 g wheat seed into a coating machine followed by treatment and drying. […] Seed designated for use as the Untreated Check also received the fungicide maintenance treatment.
Treated seeds were sent to the DuPont Breslau, Ontario Research Station and planted on June 8th in a loam composed of 34% sand, 48% silt and 18% clay and 2.9% organic matter. […] Spring wheat was planted at a rate of 100 kg seeds/ha to a depth of 3 cm. Weeds were controlled using 8.79 wt % fenoxyprop-P-ethyl at a rate of 770 mL/ha and a mixture of 33.33 wt % thifensulfuron methyl and 16.67 wt % tribenuron methyl at a rate of 30 g/ha. Disease was controlled using 23.6 wt % pyraclostrobin fungicide at a rate of 0.4 L/ha. All of the products used are considered industry standards and representative of what is used in commercial production.
The trial was conducted using a randomized complete block design with a plot size of 2.5 m by 8 m with 17.8 cm row spacing, 3.3 cm plant spacing and four replications.
Foliar NPG applications were performed 36 and 49 days after planting. The treatments were sprayed using a 4 nozzle hollow-cone boom and CO2 propellant at a speed of 4.5 km/h and 40 psi. The 36 day application utilized a mix size of 2.0 L and spray rate of 200 L/ha water volume. The 49 day application utilized a mix size of 3.0 L and spray rate of 300 L/ha water volume.
Plant Biomass was determined at 82 DAP by harvesting the entire aerial portion of the plants from each plot (Table 17). A non-statistically significant increase in biomass was determined for the NPG, LCO+RI, and LCO treatments compared to the Untreated Control.
Yield was determined by harvesting the entire 8 m of the plot and transforming the data to kg/ha (Table 18). Yields are not corrected for differences in emergence rates.

corn seeds = assay: Petri dish seed germination assay, corn
Method: A series of Petri dish seed assays was conducted to evaluate the effects NPG on the seed germination rates of corn, soybean, and canola seeds subjected to cold stress, salt stress and non-stressed conditions (salt stress only for canola). Assays were performed with ten replications of ten seeds/plate (100 total seeds). NPG was applied to seeds at the specified concentrations prior to being placed in Petri plates. Seeds designated for Salt Stress Experiments 1 & 2 were placed in Petri dishes containing a 100 mM NaCl solution and incubated at 21° C.-22° C. in the dark. Cold stress Petri dishes were incubated at 15° C. in the dark. Untreated Controls were incubated at 21° C.-22° C. in the dark as were seeds utilized in the separately conducted non-stressed germination assays. Data was recorded as percent germination at designated times after plating. Statistical analyses were performed using one-way Anova and Kruskal-Wallis one-way analysis of variance on rank combined with Dunn's all pairwise multiple comparison procedure (α=0.05).

[3] = 10^−7M seed treatment + Foliar, 35 DAP

CCCCCCC=CCCCCCCCC(=O)NC1C(OC)OC(CO)C(O)C1O [NPG, Methyl 2-deoxy-2-N-(hexadece-9,10-cis-eneoyl)-β-D-glucopyranoside]
Barley Emergence ([1]; 10^−6M seed treatment, 7 DAP): 85a %
Barley Plant Height ([1]; 10^−6M seed treatment, 7 DAP): 5.8a cm
Barley Emergence ([1]; 10^−6M seed treatment, 15 DAP): 88ab %
Barley Plant Height ([1]; 10^−6M seed treatment, 15 DAP): 12ab cm
Barley Emergence ([1]; 10^−6M seed treatment, 43 DAP): 19a %
Barley Plant Height ([1]; 10^−6M seed treatment, 43 DAP): 71a cm
Barley Yield ([1]; 10^−6M seed treatment): 3184 Kg/Hectare
Barley Emergence ([1]; 10^−7M seed treatment, 7 DAP): 86a %
Barley Plant Height ([1]; 10^−7M seed treatment, 7 DAP): 5.5ab cm
Barley Emergence ([1]; 10^−7M seed treatment, 15 DAP): 91a %
Barley Plant Height ([1]; 10^−7M seed treatment, 15 DAP): 14a cm
Barley Emergence ([1]; 10^−7M seed treatment, 43 DAP): 30a %
Barley Plant Height ([1]; 10^−7M seed treatment, 43 DAP): 71a cm
Barley Yield ([1]; 10^−7M seed treatment): 2504 Kg/Hectare
Barley Emergence ([1]; 10^−8M seed treatment, 7 DAP): 83a %
Barley Plant Height ([1]; 10^−8M seed treatment, 7 DAP): 5.6a cm
Barley Emergence ([1]; 10^−8M seed treatment, 15 DAP): 86ab %
Barley Plant Height ([1]; 10^−8M seed treatment, 15 DAP): 13a cm
Barley Emergence ([1]; 10^−8M seed treatment, 43 DAP): 25a %
Barley Plant Height ([1]; 10^−8M seed treatment, 43 DAP): 72a cm
Barley Yield ([1]; 10^−8M seed treatment): 3043 Kg/Hectare
Spring Wheat Yield ([2]; 10^−7M seed treatment): 1100a kg/ha
Spring Wheat Yield ([2]; 10^−7M seed treatment + Foliar): 1188a kg/ha
Wheat Crop Emergence ([2]; 10^−7M seed treatment + Foliar, 13 DAP): 53a %
Spring Wheat Tillering [2, 3]: 8.0a tillers/plant
Wheat Crop Emergence [2, 3]: 100a %
Spring Wheat Crop Vigor (1-5 scale) [2, 3]: 3.6a
Spring Wheat Crop Vigor (1-5 scale) ([2]; 10^−7M seed treatment + Foliar, 40 DAP): 3.5b
Spring Wheat Crop Vigor (1-5 scale) ([2]; 10^−7M seed treatment + Foliar, 52 DAP): 3.5a
Spring Wheat Biomass ([2]; 10^−7M seed treatment + Foliar): 0.198a kg/plant
Wheat Crop Emergence ([2]; 10^−7M seed treatment, 13 DAP): 53a %
Spring Wheat Tillering ([2]; 10^−7M seed treatment, 35 DAP): 9.0a tillers/plant
Wheat Crop Emergence ([2]; 10^−7M seed treatment, 35 DAP): 100a %
Spring Wheat Crop Vigor (1-5 scale) ([2]; 10^−7M seed treatment, 35 DAP): 3.4a
Spring Wheat Crop Vigor (1-5 scale) ([2]; 10^−7M seed treatment, 40 DAP): 3.5b
Spring Wheat Crop Vigor (1-5 scale) ([2]; 10^−7M seed treatment, 52 DAP): 3.4a
Spring Wheat Biomass ([2]; 10^−7M seed treatment): 0.190a kg/plant
Corn Seed Germination (corn seeds; Cold Stress (15° C.), 10^−6M, 48 HAP): 13ab %
Corn Seed Germination (corn seeds; Cold Stress (15° C.), 10^−6M, 56 HAP): 52a %
Corn Seed Germination (corn seeds; Cold Stress (15° C.), 10^−6M, 65 HAP): 100%
Corn Seed Germination (corn seeds; Cold Stress (15° C.), 10^−7M, 48 HAP): 20ab %
Corn Seed Germination (corn seeds; Cold Stress (15° C.), 10^−7M, 56 HAP): 52a %
Corn Seed Germination (corn seeds; Cold Stress (15° C.), 10^−7M, 65 HAP): 100%
Corn Seed Germination (corn seeds; Non-Stressed, 10^−6M, 28 HAP): 34a %
Corn Seed Germination (corn seeds; Non-Stressed, 10^−6M, 34 HAP): 80a %
Corn Seed Germination (corn seeds; Non-Stressed, 10^−6M, 44 HAP): 100a %
Corn Seed Germination (corn seeds; Salt Stress (100 mM NaCl) Experiment 2, 10^−6M, 32 HAP): 20b %
Corn Seed Germination (corn seeds; Salt Stress (100 mM NaCl) Experiment 2, 10^−6M, 42 HAP): 90a %
Corn Seed Germination (corn seeds; Salt Stress (100 mM NaCl) Experiment 2, 10^−7M, 32 HAP): 44a %
Corn Seed Germination (corn seeds; Salt Stress (100 mM NaCl) Experiment 2, 10^−7M, 42 HAP): 87a %
